Data published in article PMC6480460, “Derivatives of the β-Crinane Amaryllidaceae Alkaloid Haemanthamine as Multi-Target Directed Ligands for Alzheimer’s Disease” (Molecules, 2019).

What follows are molecules tested against hAChE (Homo sapiens, UniProt P22303) (assay: biochemical). Conditions: mean ± SEM of three independent measurements, each in triplicate.
Format: biochemical
Procedure: (§1) The hAChE and hBuChE activities were determined using a modified method of Ellman with acetylthiocholine iodide (ATChI) and butyrylthiocholine iodide (BuTChI) as substrates, respectively.

Chain of hAChE (P22303 32-614): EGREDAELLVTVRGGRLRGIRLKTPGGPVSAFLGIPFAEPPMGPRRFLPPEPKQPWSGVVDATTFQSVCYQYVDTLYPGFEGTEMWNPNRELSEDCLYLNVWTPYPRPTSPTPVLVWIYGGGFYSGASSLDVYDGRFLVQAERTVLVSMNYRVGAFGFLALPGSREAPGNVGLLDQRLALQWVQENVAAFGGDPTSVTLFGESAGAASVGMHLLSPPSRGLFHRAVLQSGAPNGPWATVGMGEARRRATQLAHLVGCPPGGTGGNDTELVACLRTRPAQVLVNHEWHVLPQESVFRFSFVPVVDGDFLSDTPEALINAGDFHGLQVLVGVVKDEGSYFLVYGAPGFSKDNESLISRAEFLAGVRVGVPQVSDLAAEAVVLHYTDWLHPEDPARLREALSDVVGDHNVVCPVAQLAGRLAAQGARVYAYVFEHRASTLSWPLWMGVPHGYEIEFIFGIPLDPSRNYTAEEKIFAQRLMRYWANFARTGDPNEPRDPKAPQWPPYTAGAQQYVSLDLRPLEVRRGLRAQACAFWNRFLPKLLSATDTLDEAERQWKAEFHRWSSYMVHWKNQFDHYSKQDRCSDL

| Structure (SMILES) | IC50 [µM] |
| --- | --- |
| COC1C=CC23c4cc5c(cc4CN(CC2OC(=O)C(C)C)C3C1)OCO5 (centres unmarked) [Compound 1c, 11-O-Isobutanoylhaemanthamine] | > 500 |
| COC1C=CC23c4cc5c(cc4CN(CC2OC(=O)c2cccc(Cl)c2)C3C1)OCO5 (centres unmarked) [Compound 1h, 11-O-(3-Chlorobenzoyl)haemanthamine] | 85.1 ± 6.4 |
| CCCCCC(=O)OC1CN2Cc3cc4c(cc3C13C=CC(OC)CC23)OCO4 (centres unmarked) [Compound 1e, 11-O-Hexanoylhaemanthamine] | > 500 |

Same assay, conditions: selectivity index, ratio hBuChE IC50/hAChE IC50

| Structure (SMILES) | SI for hAChE |
| --- | --- |
| COC1C=CC23c4cc5c(cc4CN(CC2OC(=O)C(C)C)C3C1)OCO5 (centres unmarked) [Compound 1c, 11-O-Isobutanoylhaemanthamine] | < 0.4 |
| COC1C=CC23c4cc5c(cc4CN(CC2OC(=O)c2cccc(Cl)c2)C3C1)OCO5 (centres unmarked) [Compound 1h, 11-O-(3-Chlorobenzoyl)haemanthamine] | 0.9 |
| CCCCCC(=O)OC1CN2Cc3cc4c(cc3C13C=CC(OC)CC23)OCO4 (centres unmarked) [Compound 1e, 11-O-Hexanoylhaemanthamine] | < 0.5 |

These molecules were tested against hBuChE (Homo sapiens, UniProt P06276) (assay: biochemical). Conditions: mean ± SEM of three independent measurements, each in triplicate; read-out: hBuChE IC50.
Format: biochemical
Procedure: as §1

Chain of hBuChE (P06276 29-602): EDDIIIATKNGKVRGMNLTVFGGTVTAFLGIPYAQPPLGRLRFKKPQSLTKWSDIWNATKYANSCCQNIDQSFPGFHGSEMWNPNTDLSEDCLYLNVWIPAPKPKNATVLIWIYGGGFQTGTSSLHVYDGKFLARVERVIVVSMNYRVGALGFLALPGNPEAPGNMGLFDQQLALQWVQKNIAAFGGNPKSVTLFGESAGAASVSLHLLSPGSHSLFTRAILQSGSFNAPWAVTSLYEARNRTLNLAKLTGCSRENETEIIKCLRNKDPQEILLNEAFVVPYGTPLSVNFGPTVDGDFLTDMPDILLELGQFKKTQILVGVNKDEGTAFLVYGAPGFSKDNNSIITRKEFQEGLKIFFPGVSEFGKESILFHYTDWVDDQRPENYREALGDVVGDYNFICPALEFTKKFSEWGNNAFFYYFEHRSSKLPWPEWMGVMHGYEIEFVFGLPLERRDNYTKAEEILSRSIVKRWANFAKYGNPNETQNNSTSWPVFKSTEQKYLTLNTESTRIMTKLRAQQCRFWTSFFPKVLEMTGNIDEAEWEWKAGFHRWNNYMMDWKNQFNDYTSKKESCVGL

| Structure (SMILES) | IC50 [µM] |
| --- | --- |
| COC1C=CC23c4cc5c(cc4CN(CC2OC(=O)C(C)C)C3C1)OCO5 (centres unmarked) [Compound 1c, 11-O-Isobutanoylhaemanthamine] | 203 ± 8 |
| COC1C=CC23c4cc5c(cc4CN(CC2OC(=O)c2cccc(Cl)c2)C3C1)OCO5 (centres unmarked) [Compound 1h, 11-O-(3-Chlorobenzoyl)haemanthamine] | 80.2 ± 10.2 |
| CCCCCC(=O)OC1CN2Cc3cc4c(cc3C13C=CC(OC)CC23)OCO4 (centres unmarked) [Compound 1e, 11-O-Hexanoylhaemanthamine] | 273 ± 18 |

Each molecule was assayed on Jurkat (acute T cell leukemia) (assay: WST-1 cytotoxicity assay, Jurkat). Conditions: Homo sapiens, c = 10 μM, 48 h, percent of proliferation of untreated control cells.
Format: cell-based
From the text: (§2) Selected human tumor and non-tumor cell lines {Jurkat (acute T cell leukemia), MOLT-4 (acute lymphoblastic leukemia), A549 (lung carcinoma), HT-29 (colorectal adenocarcinoma), PANC-1 (pancreas epithelioid carcinoma), A2780 (ovarian carcinoma), HeLa (cervix adenocarcinoma), MCF-7 (breast adenocarcinoma), SAOS-2 (osteosarcoma) and MRC-5 (normal lung fibroblasts)} were purchased from either ATCC (Manassas, VA, USA) or Sigma-Aldrich (St. Louis, MO, USA) and cultured according to the provider’s culture method guidelines. […] Cells in the maximum range of either 10 passages for primary cell line (MRC-5), or in the maximum range of 20 passages for cancer cell lines (Jurkat, MOLT-4, A549, HT-29, PANC-1, A2780, HeLa, MCF-7 and SAOS-2) and in an exponential growth phase were used for this study.
(§3) The WST-1 (Roche, Mannheim, Germany) reagent was used to determine the cytostatic effect of the test compounds. WST-1 is designed for the spectrophotometric quantification of cell proliferation, growth, viability and chemosensitivity in cell populations using a 96-well-plate format (Sigma, St. Louis, MO, USA). The principle of WST-1 is based on photometric detection of the reduction of tetrazolium salt to a colored formazan product. The cells were seeded at a previously established optimal density (30,000 Jurkat, 25,000 MOLT-4, 500 A549, 1500 HT-29, 2000 PANC-1, 5000 A2780, 500 HeLa, 1500 MCF-7, 2000 SAOS-2 and 2000 MRC-5 cells/well) in 100 µL of culture medium, and adherent cells were allowed to reattach overnight. Thereafter, the cells were treated with 100 µL of either corresponding alkaloids or doxorubicin stock solutions to obtain the desired concentrations and incubated in 5% CO2 at 37 °C. WST-1 reagent diluted 4-fold with PBS (50 µL) was added 48 h after treatment. Absorbance was measured after 3 h incubation with WST-1 at 440 nm. The measurements were performed in a Tecan Infinite M200 spectrometer (Tecan Group, Männedorf, Switzerland). All experiments were performed at least three times with triplicate measurements at each drug concentration per experiment. The viability was quantified as described previously according to the following formula: (%) viability = (Asample − Ablank)/(Acontrol − Ablank) × 100, where A is the absorbance of the employed WST-1 formazan measured at 440 nm. The viability of the treated cells was normalized to the viability of cells treated with 0.1% DMSO (Sigma-Aldrich) as a vehicle control.

| Structure (SMILES) | activity at 10 µM [%] |
| --- | --- |
| COC1C=CC23c4cc5c(cc4CN(CC2OC(=O)C(C)C)C3C1)OCO5 (centres unmarked) [Compound 1c, 11-O-Isobutanoylhaemanthamine] | 110 ± 3 |
| CCCCCC(=O)OC1CN2Cc3cc4c(cc3C13C=CC(OC)CC23)OCO4 (centres unmarked) [Compound 1e, 11-O-Hexanoylhaemanthamine] | 100 ± 7 |

What follows are molecules tested on MOLT-4 (acute lymphoblastic leukemia) (assay: WST-1 cytotoxicity assay, MOLT-4). Conditions: Homo sapiens, c = 10 μM, 48 h, percent of proliferation of untreated control cells, read-out: Cell proliferation, MOLT-4.
Format: cell-based
From the text: as §2, §3

| Structure (SMILES) | viability at 10 µM [%] |
| --- | --- |
| COC1C=CC23c4cc5c(cc4CN(CC2OC(=O)C(C)C)C3C1)OCO5 (centres unmarked) [Compound 1c, 11-O-Isobutanoylhaemanthamine] | 99 ± 8 |
| CCCCCC(=O)OC1CN2Cc3cc4c(cc3C13C=CC(OC)CC23)OCO4 (centres unmarked) [Compound 1e, 11-O-Hexanoylhaemanthamine] | 97 ± 3 |

These molecules were tested on A549 (lung carcinoma) (assay: WST-1 cytotoxicity assay, A549). Conditions: Homo sapiens, c = 10 μM, 48 h, percent of proliferation of untreated control cells, read-out: Cell proliferation, A549.
Format: cell-based
From the text: as §2, §3

| Structure (SMILES) | activity at 10 µM [%] |
| --- | --- |
| COC1C=CC23c4cc5c(cc4CN(CC2OC(=O)C(C)C)C3C1)OCO5 (centres unmarked) [Compound 1c, 11-O-Isobutanoylhaemanthamine] | 84 ± 3 |
| CCCCCC(=O)OC1CN2Cc3cc4c(cc3C13C=CC(OC)CC23)OCO4 (centres unmarked) [Compound 1e, 11-O-Hexanoylhaemanthamine] | 105 ± 9 |

What follows are molecules tested on HT-29 (colorectal adenocarcinoma) (assay: WST-1 cytotoxicity assay, HT-29). Conditions: Homo sapiens, c = 10 μM, 48 h, percent of proliferation of untreated control cells, read-out: Cell proliferation, HT-29.
Format: cell-based
From the text: as §2, §3

| Structure (SMILES) | activity at 10 µM [%] |
| --- | --- |
| COC1C=CC23c4cc5c(cc4CN(CC2OC(=O)C(C)C)C3C1)OCO5 (centres unmarked) [Compound 1c, 11-O-Isobutanoylhaemanthamine] | 82 ± 17 |
| CCCCCC(=O)OC1CN2Cc3cc4c(cc3C13C=CC(OC)CC23)OCO4 (centres unmarked) [Compound 1e, 11-O-Hexanoylhaemanthamine] | 100 ± 3 |

The molecules below were run on PANC-1 (pancreas epithelioid carcinoma) (assay: WST-1 cytotoxicity assay, PANC-1). Conditions: Homo sapiens, c = 10 μM, 48 h, percent of proliferation of untreated control cells, read-out: Cell proliferation, PANC-1.
Format: cell-based
From the text: as §2, §3

| Structure (SMILES) | activity at 10 µM [%] |
| --- | --- |
| COC1C=CC23c4cc5c(cc4CN(CC2OC(=O)C(C)C)C3C1)OCO5 (centres unmarked) [Compound 1c, 11-O-Isobutanoylhaemanthamine] | 85 ± 13 |
| CCCCCC(=O)OC1CN2Cc3cc4c(cc3C13C=CC(OC)CC23)OCO4 (centres unmarked) [Compound 1e, 11-O-Hexanoylhaemanthamine] | 96 ± 4 |

What follows are molecules tested on A2780 (ovarian carcinoma) (assay: WST-1 cytotoxicity assay, A2780). Conditions: Homo sapiens, c = 10 μM, 48 h, percent of proliferation of untreated control cells, read-out: Cell proliferation, A2780.
Format: cell-based
From the text: as §2, §3

| Structure (SMILES) | activity at 10 µM [%] |
| --- | --- |
| COC1C=CC23c4cc5c(cc4CN(CC2OC(=O)C(C)C)C3C1)OCO5 (centres unmarked) [Compound 1c, 11-O-Isobutanoylhaemanthamine] | 123 ± 9 |
| CCCCCC(=O)OC1CN2Cc3cc4c(cc3C13C=CC(OC)CC23)OCO4 (centres unmarked) [Compound 1e, 11-O-Hexanoylhaemanthamine] | 106 ± 5 |

What follows are molecules tested on HeLa (cervix adenocarcinoma) (assay: WST-1 cytotoxicity assay, HeLa). Conditions: Homo sapiens, c = 10 μM, 48 h, percent of proliferation of untreated control cells, read-out: Cell proliferation, HeLa.
Format: cell-based
From the text: as §2, §3

| Structure (SMILES) | activity at 10 µM [%] |
| --- | --- |
| COC1C=CC23c4cc5c(cc4CN(CC2OC(=O)C(C)C)C3C1)OCO5 (centres unmarked) [Compound 1c, 11-O-Isobutanoylhaemanthamine] | 74 ± 8 |
| CCCCCC(=O)OC1CN2Cc3cc4c(cc3C13C=CC(OC)CC23)OCO4 (centres unmarked) [Compound 1e, 11-O-Hexanoylhaemanthamine] | 98 ± 3 |

What follows are molecules tested on MCF-7 (breast adenocarcinoma) (assay: WST-1 cytotoxicity assay, MCF-7). Conditions: Homo sapiens, MCF7; c = 10 μM, 48 h, percent of proliferation of untreated control cells; read-out: Cell proliferation, MCF-7.
Format: cell-based
From the text: as §2, §3

| Structure (SMILES) | activity at 10 µM [%] |
| --- | --- |
| COC1C=CC23c4cc5c(cc4CN(CC2OC(=O)C(C)C)C3C1)OCO5 (centres unmarked) [Compound 1c, 11-O-Isobutanoylhaemanthamine] | 103 ± 7 |
| CCCCCC(=O)OC1CN2Cc3cc4c(cc3C13C=CC(OC)CC23)OCO4 (centres unmarked) [Compound 1e, 11-O-Hexanoylhaemanthamine] | 95 ± 4 |

Each molecule was assayed on SAOS-2 (osteosarcoma) (assay: WST-1 cytotoxicity assay, SAOS-2). Conditions: Homo sapiens, c = 10 μM, 48 h, percent of proliferation of untreated control cells, read-out: Cell proliferation, SAOS-2.
Format: cell-based
From the text: as §2, §3

| Structure (SMILES) | activity at 10 µM [%] |
| --- | --- |
| COC1C=CC23c4cc5c(cc4CN(CC2OC(=O)C(C)C)C3C1)OCO5 (centres unmarked) [Compound 1c, 11-O-Isobutanoylhaemanthamine] | 85 ± 15 |
| CCCCCC(=O)OC1CN2Cc3cc4c(cc3C13C=CC(OC)CC23)OCO4 (centres unmarked) [Compound 1e, 11-O-Hexanoylhaemanthamine] | 96 ± 8 |

These molecules were tested on MRC-5 (normal lung fibroblasts) (assay: WST-1 cytotoxicity assay, MRC-5). Conditions: Homo sapiens, MRC5; c = 10 μM, 48 h, percent of proliferation of untreated control cells; read-out: Cell proliferation, MRC-5.
Format: cell-based
From the text: as §2, §3

| Structure (SMILES) | activity at 10 µM [%] |
| --- | --- |
| COC1C=CC23c4cc5c(cc4CN(CC2OC(=O)C(C)C)C3C1)OCO5 (centres unmarked) [Compound 1c, 11-O-Isobutanoylhaemanthamine] | 95 ± 7 |
| CCCCCC(=O)OC1CN2Cc3cc4c(cc3C13C=CC(OC)CC23)OCO4 (centres unmarked) [Compound 1e, 11-O-Hexanoylhaemanthamine] | 96 ± 4 |
